Earlier results in USRE31980E, “Olefinic derivatives of amino acids” (Merrell Toraude et Compagnie, priority 1983, dated 1985).

Key:
[1] = tested on: γ-aminobutyric acid transaminase
[2] = tested on: brain level of γ-aminobutyric acid; conditions: in vivo

Compound | inhibition of γ-aminobutyric acid transaminase (kind of inhibition), literature [1] | duration of the reversible effect (elevated brain levels of γ-aminobutyric acid), literature [2]
CCCC(CCC)C(=O)O [n-dipropylacetate] | competitively inhibiting | about 2 hours
NCC#CC(=O)O [4-aminotetrolic acid] | competitive reversible inhibitor | –
